Earlier results as cited in patent publication US9504669B2, “Spliceostatin analogs and methods for their preparation” (PFIZER INC., priority 2012, dated 2016).

Experiments:
xenograft tumor models = details: Journal of Antibiotics (1996), 49(12), 1204-1211; cited from earlier work
human cancer cell lines = details: Journal of Antibiotics (1996), 49(12), 1204-1211; cited from earlier work
[1] = tested on: spliceosome (SF3b, component of the subcomplex U2 snRNA); details: Nature Chemical Biology (2007), 3(9), 576-583; Nature (2010), 468(7324), 664-668; cited from earlier work

## CC(=O)O[C@@H](C)/C=C\C(=O)N[C@@H]1C[C@H](C)[C@H](C/C=C(C)/C=C/[C@H]2O[C@](C)(O)C[C@@]3(CO3)[C@@H]2O)O[C@@H]1C [FR901464]
Xenograft tumor models
  efficacies in xenograft tumor models: efficacies in several xenograft tumor models
Human cancer cell lines
  inhibitory activities against human cancer cell lines: potent inhibitory activities
[1]
  inhibition of the spliceosome: inhibit the spliceosome by interaction with SF3b
